Data taken from patent US8163756B2 (priority 2004, dated 2012).
Like-named read-outs stand apart in the source and are kept apart here.

Assays:
[1] = target: phosphorylated p-38-alpha kinase (Homo sapiens, UniProt Q16539); experiment: P-38 alpha kinase assay P1 (coupled spectrophotometric, 2 h pre-incubation); format: biochemical; conditions: method P1 (2 h pre-incubation); read-out: P-38 Data
B-Raf(V599E) kinase = B-Raf(V599E) kinase (Homo sapiens, UniProt P15056, V600E); experiment: B-Raf(V599E) kinase assay B1 (construct 1, MEK1 substrate, coupled spectrophotometric); format: biochemical
Experimental: The test compounds were incubated with the reaction mixtureat 30° C. for 2 h. […] The reaction rate was calculated using the […] time frame. […] IC50 values were calculated from a series of percent inhibition values determined at a range of inhibitor concentrations using software routines as implemented in the GraphPad Prism software package.

B-Raf(V599E) kinase, sequence (P15056 with tags, fused parts or gaps V600E): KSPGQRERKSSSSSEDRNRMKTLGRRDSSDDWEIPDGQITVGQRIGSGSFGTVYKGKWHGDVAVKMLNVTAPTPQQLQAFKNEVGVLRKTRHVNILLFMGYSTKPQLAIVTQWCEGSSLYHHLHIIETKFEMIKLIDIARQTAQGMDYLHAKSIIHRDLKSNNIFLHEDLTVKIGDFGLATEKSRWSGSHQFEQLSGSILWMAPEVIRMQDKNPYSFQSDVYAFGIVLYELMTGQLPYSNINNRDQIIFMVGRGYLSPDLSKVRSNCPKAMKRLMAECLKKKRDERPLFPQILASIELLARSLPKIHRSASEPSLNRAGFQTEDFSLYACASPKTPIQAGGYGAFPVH
phosphorylated p-38-alpha kinase, sequence (Q16539 1-360 isoform Q16539-2): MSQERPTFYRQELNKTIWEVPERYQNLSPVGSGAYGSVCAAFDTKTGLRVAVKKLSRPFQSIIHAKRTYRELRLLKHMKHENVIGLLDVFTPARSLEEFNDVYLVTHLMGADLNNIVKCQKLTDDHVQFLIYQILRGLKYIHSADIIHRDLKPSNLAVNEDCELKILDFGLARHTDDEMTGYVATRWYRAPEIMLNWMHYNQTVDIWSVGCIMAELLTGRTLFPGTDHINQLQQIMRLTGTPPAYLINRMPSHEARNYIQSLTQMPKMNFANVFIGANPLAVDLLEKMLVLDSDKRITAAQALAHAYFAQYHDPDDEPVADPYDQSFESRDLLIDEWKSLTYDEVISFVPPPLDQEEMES

| SMILES | IC50 [1] [nM] | IC50 (B-Raf(V599E) kinase) [nM] | other results |
| --- | --- | --- | --- |
| O=C(Cc1cccc(-n2nc(-c3cccs3)cc2NC(=O)N[C@H]2CCc3ccccc32)c1)NCC(O)CO (stereo partly drawn) [Example 417, 1-((S)-2,3-dihydro-1H-inden-1-yl)-3-(1-(3-(2-(2,3-dihydroxypropylamino)-2-oxoethyl)phenyl)-3-(thiophen-2-yl)-1H-pyrazol-5-yl)urea] | 29 |  |  |
| O=C(Cc1cccc(-n2nc(-c3ccc(F)cc3)cc2NC(=O)Nc2cccc(Cl)c2Cl)c1)NCCO [Example 455, 1-(2,3-dichlorophenyl)-3-(3-(4-fluorophenyl)-1-(3-(2-(2-hydroxyethylamino)-2-oxoethyl)phenyl)-1H-pyrazol-5-yl)urea] | 82 |  |  |
| O=C(O)Cc1cccc(-n2nc(-c3ccccc3F)cc2NC(=O)N[C@H]2CCc3ccccc32)c1 [Example 360, 2-(3-(5-(3-((S)-2,3-dihydro-1H-inden-1-yl)ureido)-3-(2-fluorophenyl)-1H-pyrazol-1-yl)phenyl)acetic acid] | 20 |  |  |
| O=C(Cc1cccc(-n2nc(-c3ccccc3F)cc2NC(=O)Nc2cccc3ccccc23)c1)NCC(O)CO (stereo not drawn) [Example 425, 1-(1-(3-(2-(2,3-dihydroxypropylamino)-2-oxoethyl)phenyl)-3-(2-fluorophenyl)-1H-pyrazol-5-yl)-3-(naphthalen-1-yl)urea] | 29 |  |  |
| CC(C)(C)c1cc(NC(=O)Nc2ccc(F)c(F)c2F)n(-c2ccc(CC(N)=O)cc2)n1 [Example 466, 1-(1-(4-(2-amino-2-oxoethyl)phenyl)-3-t-butyl-1H-pyrazol-5-yl)-3-(2,3,4-trifluorophenyl)urea] | 22 |  |  |
| O=C(Cc1cccc(-n2nc(-c3cccs3)cc2NC(=O)N[C@H]2CCc3ccccc32)c1)NCCO [Example 416, 1-((S)-2,3-dihydro-1H-inden-1-yl)-3-(1-(3-(2-(2-hydroxyethylamino)-2-oxoethyl)phenyl)-3-(thiophen-2-yl)-1H-pyrazol-5-yl)urea] | 32 |  |  |
| NC(=O)Cc1cccc(-n2nc(-c3ccccc3F)cc2NC(=O)N[C@H]2CCc3ccccc32)c1 [Example 411, 1-(1-(3-(2-amino-2-oxoethyl)phenyl)-3-(2-fluorophenyl)-1H-pyrazol-5-yl)-3-((S)-2,3-dihydro-1H-inden-1-yl)urea] | 37 |  |  |
| O=C(Cc1cccc(-n2nc(-c3ccccc3F)cc2NC(=O)Nc2cccc3ccccc23)c1)NCCO [Example 426, 1-(3-(2-fluorophenyl)-1-(3-(2-(2-hydroxyethylamino)-2-oxoethyl)phenyl)-1H-pyrazol-5-yl)-3-(naphthalen-1-yl)urea] | 38 |  |  |
| CN(C)[C@H]1CCN(C(=O)Cc2cccc(-n3nc(C4CCCC4)cc3NC(=O)Nc3cccc(Cl)c3Cl)c2)C1 [Example 419, 1-(3-cyclopentyl-1-(3-(2-((S)-3-(dimethylamino)pyrrolidin-1-yl)-2-oxoethyl)phenyl)-1H-pyrazol-5-yl)-3-(2,3-dichlorophenyl)urea] | 38 |  |  |
| CC(C)(C)c1cc(NC(=O)Nc2ccc(Cl)cc2)n(-c2cccc(CO)c2)n1 [Example 224] | 38 |  |  |
| O=C(Cc1cccc(-n2nc(-c3cccs3)cc2NC(=O)Nc2cccc3ccccc23)c1)NCCO [Example 428, 1-(1-(3-(2-(2-hydroxyethylamino)-2-oxoethyl)phenyl)-3-(thiophen-2-yl)-1H-pyrazol-5-yl)-3-(naphthalen-1-yl)urea] | 12 |  |  |
| CNC(=O)Cc1cccc(-n2nc(C(C)(C)C)cc2NC(=O)Nc2ccc(F)c(F)c2F)c1 [Example 402, 1-(3-t-butyl-1-(3-(2-(methylamino)-2-oxoethyl)phenyl)-1H-pyrazol-5-yl)-3-(2,3,4-trifluorophenyl)urea] | 26 |  |  |
| O=C(Cc1cccc(-n2nc(-c3ccccc3F)cc2NC(=O)N[C@H]2CCc3ccccc32)c1)NCC(O)CO (stereo partly drawn) [Example 413, 1-((S)-2,3-dihydro-1H-inden-1-yl)-3-(1-(3-(2-(2,3-dihydroxypropylamino)-2-oxoethyl)phenyl)-3-(2-fluorophenyl)-1H-pyrazol-5-yl)urea] | 28 |  |  |
| NC(=O)Cc1cccc(-n2nc(-c3ccccc3F)cc2NC(=O)Nc2cccc3ccccc23)c1 [Example 423, 1-(1-(3-(2-amino-2-oxoethyl)phenyl)-3-(2-fluorophenyl)-1H-pyrazol-5-yl)-3-(naphthalen-1-yl)urea] | 21 |  |  |
| CC(C)(C)c1cc(NC(=O)Nc2cccc(Oc3ccccc3)c2)n(-c2ccc3c(c2)CCC(=O)N3)n1 [Example 325, 1-(3-t-butyl-1-(2-oxo-1,2,3,4-tetrahydro-quinolin-6-yl)-1H-pyrazol-5-yl)-3-(3-phenoxyphenyl)urea] |  | 4.5 |  |
| CC(C)(C)c1cc(NC(=O)NC2CCCC2)n(-c2cc(CC(N)=O)c3ccccc3c2)n1 [Example 93, 1-(1-(4-(2-amino-2-oxoethyl)naphthalen-2-yl)-3-t-butyl-1H-pyrazol-5-yl)-3-cyclopentylurea] |  | 60 |  |
| COc1ccc(-n2nc(C(C)(C)C)cc2NC(=O)Nc2cccc(C(F)(F)F)c2)cc1 [Example 238, 1-[3-t-butyl-1-(4-methoxyphenyl)-1H-pyrazol-5-yl]-3-(3-trifluoromethylphenyl)urea] |  | 65 |  |
| CC(C)(C)c1cc(NC(=O)Nc2ccc(F)cc2F)n(-c2ccc3c(c2)C(=O)NCC3)n1 [Example 311, 1-(3-t-butyl-1-(1-oxo-1,2,3,4-tetrahydroiso-quinolin-7-yl)-1H-pyrazol-5-yl)-3-(2,4-difluorophenyl)urea] |  | 32 |  |

| SMILES | IC50 [1] [nM] | IC50 (B-Raf(V599E) kinase) [nM] | other results |
| --- | --- | --- | --- |
| CC(C)(C)c1cc(NC(=O)Nc2ccccc2F)n(-c2cccc(CC(N)=O)c2)n1 [Example 393, 1-{1-[3-(2-amino-2-oxoethyl)phenyl]-3-t-butyl-1H-pyrazol-5-yl}-3-(2-fluorophenyl)urea] |  | 20 |  |
| COc1cccc(-n2nc(C(C)(C)C)cc2NC(=O)Nc2ccc(F)cc2)c1 [Example 230, 1-(3-t-butyl-1-(3-methoxyphenyl)-1H-pyrazol-5-yl)-3-(4-fluorophenyl)urea] |  | 52 |  |
| CC(C)(C)c1cc(NC(=O)Nc2ccc(F)cc2F)n(-c2ccc3ncccc3c2)n1 [Example 284, 1-(3-t-butyl-1-(quinolin-6-yl)-1H-pyrazol-5-yl)-3-(2,4-difluorophenyl)urea] |  | 8.5 |  |
| CCOC(=O)c1ccc(-n2nc(C(C)(C)C)cc2NC(=O)Nc2cccc(Cl)c2Cl)cc1 [Example 243, ethyl 4-{3-t-butyl-5-[3-(2,3-dichlorophenyl)ureido]-1H-pyrazol-1-yl}benzoate] |  | 41 |  |
| O=C(O)Cc1cccc(-n2nc(C3CCCC3)cc2NC(=O)Nc2cccc(Cl)c2Cl)c1 [Example 368, 2-(3-(3-cyclopentyl-5-(3-(2,3-dichlorophenyl)-ureido)-1H-pyrazol-1-yl)phenyl)acetic acid] |  |  | IC50 (B-Raf(V599E) kinase; Method B1, read-out: B-Raf Data): 6.2 nM |
| CC(C)(C)c1cc(NC(=O)Nc2cccc(Cl)c2Cl)n(-c2cc(C(=O)O)c3ccccc3c2)n1 [Example 287, 3-{3-t-butyl-5-(3-(2,3-dichlorophenyl)ureido]-1H-pyrazol-1-yl}-1-naphthoic acid] |  | 41 |  |
| CC(C)(C)c1cc(NC(=O)Nc2ccc(Cl)cc2)n(-c2cc(CC(=O)O)c3ccccc3c2)n1 [Example 300, (3-{3-t-butyl-5-[3-(4-chlorophenyl)ureido]pyrazol-1-yl}naphthalen-1-yl)acetic acid] |  | 9.2 |  |
| CC(C)(C)c1ncc(NC(=O)Nc2cccc(Oc3ccccc3)c2)c(-c2ccccc2)n1 [Example 280, 1-(2-t-butyl-4-phenylpyrimidin-5-yl)-3-(3-phenoxyphenyl)urea] |  | 275 |  |
| CC(C)(C)c1cc(NC(=O)Nc2ccc(Cl)cc2)n(-c2cccc(CCN)c2)n1 [Example 255, 1-{1-[3-(2-aminoethyl)phenyl]-3-t-butyl-1H-pyrazol-5-yl}-3-(4-chlorophenyl)urea] |  | 86 |  |
| CC(C)(C)c1cc(NC(=O)Nc2ccc(Cl)cc2)n(-c2ccc3c(c2)CCC(=O)N3)n1 [Example 315, 1-(3-t-butyl-1-(2-oxo-1,2,3,4-tetrahydro-quinolin-6-yl)-1H-pyrazol-5-yl)-3-(4-chlorophenyl)urea] |  | 186 |  |
| CC(C)(C)c1cc(NC(=O)NC2CCCCC2)n(-c2cc(CO)c3ccccc3c2)n1 [Example 292, 1-(3-t-butyl-1-(4-(hydroxymethyl)naphthalen-2-yl)-1H-pyrazol-5-yl)-3-cyclohexylurea] |  | 22 |  |
| CC(C)(C)c1cc(NC(=O)Nc2ccccc2F)n(-c2cc(CC(N)=O)c3ccccc3c2)n1 [Example 89, 1-(1-(4-(2-amino-2-oxoethyl)naphthalen-2-yl)-3-t-butyl-1H-pyrazol-5-yl)-3-(2-fluorophenyl)urea] |  | 5.5 |  |
| CC(C)(C)c1cc(NC(=O)Nc2cc(F)c(F)c(F)c2)n(-c2cc(CC(N)=O)c3ccccc3c2)n1 [Example 92, 1-(1-(4-(2-amino-2-oxoethyl)naphthalen-2-yl)-3-t-butyl-1H-pyrazol-5-yl)-3-(3,4,5-trifluorophenyl)urea] |  | 8.2 |  |
| C[C@H](NC(=O)Nc1cc(C(C)(C)C)nn1-c1cccc(C#N)c1)c1ccccc1 [Example 211, 1-[3-t-butyl-1-(3-cyanophenyl)-1H-pyrazol-5-yl]-3-((S)-1-phenylethyl)urea] |  | 785 |  |
| CC(C)(C)c1cc(NC(=O)Nc2cc(F)cc(F)c2F)n(-c2ccc3[nH]c(=O)ccc3c2)n1 [Example 331] |  | 3.4 |  |
| CC(C)(C)c1cc(NC(=O)Nc2cccc(Cl)c2Cl)n(-c2cc(CCO)c3ccccc3c2)n1 [Example 303, 1-{5-t-butyl-2-[4-(2-hydroxyethyl)naphthalen-2-yl]-2H-pyrazol-3-yl}-3-(2,3-dichlorophenyl)urea] |  | 4.3 |  |
| CC(C)(C)c1cc(NC(=O)Nc2cccc(F)c2F)n(-c2ccc3c(c2)CCN(S(C)(=O)=O)C3)n1 [Example 328, 1-(3-t-butyl-1-(2-(methylsulfonyl)-1,2,3,4-tetrahydroisoquinolin-6-yl)-1H-pyrazol-5-yl)-3-(2,3-difluorophenyl)urea] |  | 25 |  |
| CCOC(=O)Cc1cc(-n2nc(C(C)(C)C)cc2NC(=O)Nc2ccc(Cl)cc2)cc2ccccc12 [Example 298, (3-{3-t-butyl-5-[3-(4-chlorophenyl)ureido]pyrazol-1-yl}naphthalen-1-yl)acetic acid ethyl ester] |  | 83 |  |
